Series [1] addresses T1, Phosphatidylinositol 5-phosphate 4-kinase type-2 gamma (Homo sapiens, UniProt Q8TBX8).
T1 sequence (Q8TBX8 whole entry): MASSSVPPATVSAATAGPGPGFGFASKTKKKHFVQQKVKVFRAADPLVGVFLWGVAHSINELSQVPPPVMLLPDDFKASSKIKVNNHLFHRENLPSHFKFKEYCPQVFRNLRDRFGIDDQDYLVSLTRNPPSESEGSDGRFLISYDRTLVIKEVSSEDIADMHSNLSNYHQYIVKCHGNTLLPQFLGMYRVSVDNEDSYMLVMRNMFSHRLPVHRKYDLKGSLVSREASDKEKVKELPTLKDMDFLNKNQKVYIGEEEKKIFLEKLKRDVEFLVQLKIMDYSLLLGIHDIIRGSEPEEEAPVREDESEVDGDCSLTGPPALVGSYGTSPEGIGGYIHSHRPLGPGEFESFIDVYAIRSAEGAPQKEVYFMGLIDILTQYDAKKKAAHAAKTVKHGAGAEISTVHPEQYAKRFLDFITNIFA
The series is described as follows: Inhibition of PIP5K2C (unknown origin).

For another series, the target named is Huntingtin (Homo sapiens, UniProt P42858). The series is described as follows: Inhibition of GFP-fused Huntingtin protein Q103/Q25 mutant (unknown origin) […] assessed as protection against huntingtin protein aggregation incubated for 48 hrs by multiplexed assay based HTT f3(agr) method. The class given is cell-based. The following applies: pc-12.
Chain of Huntingtin (P42858 whole entry, looked up, stated change not applied, the tested form may be a part): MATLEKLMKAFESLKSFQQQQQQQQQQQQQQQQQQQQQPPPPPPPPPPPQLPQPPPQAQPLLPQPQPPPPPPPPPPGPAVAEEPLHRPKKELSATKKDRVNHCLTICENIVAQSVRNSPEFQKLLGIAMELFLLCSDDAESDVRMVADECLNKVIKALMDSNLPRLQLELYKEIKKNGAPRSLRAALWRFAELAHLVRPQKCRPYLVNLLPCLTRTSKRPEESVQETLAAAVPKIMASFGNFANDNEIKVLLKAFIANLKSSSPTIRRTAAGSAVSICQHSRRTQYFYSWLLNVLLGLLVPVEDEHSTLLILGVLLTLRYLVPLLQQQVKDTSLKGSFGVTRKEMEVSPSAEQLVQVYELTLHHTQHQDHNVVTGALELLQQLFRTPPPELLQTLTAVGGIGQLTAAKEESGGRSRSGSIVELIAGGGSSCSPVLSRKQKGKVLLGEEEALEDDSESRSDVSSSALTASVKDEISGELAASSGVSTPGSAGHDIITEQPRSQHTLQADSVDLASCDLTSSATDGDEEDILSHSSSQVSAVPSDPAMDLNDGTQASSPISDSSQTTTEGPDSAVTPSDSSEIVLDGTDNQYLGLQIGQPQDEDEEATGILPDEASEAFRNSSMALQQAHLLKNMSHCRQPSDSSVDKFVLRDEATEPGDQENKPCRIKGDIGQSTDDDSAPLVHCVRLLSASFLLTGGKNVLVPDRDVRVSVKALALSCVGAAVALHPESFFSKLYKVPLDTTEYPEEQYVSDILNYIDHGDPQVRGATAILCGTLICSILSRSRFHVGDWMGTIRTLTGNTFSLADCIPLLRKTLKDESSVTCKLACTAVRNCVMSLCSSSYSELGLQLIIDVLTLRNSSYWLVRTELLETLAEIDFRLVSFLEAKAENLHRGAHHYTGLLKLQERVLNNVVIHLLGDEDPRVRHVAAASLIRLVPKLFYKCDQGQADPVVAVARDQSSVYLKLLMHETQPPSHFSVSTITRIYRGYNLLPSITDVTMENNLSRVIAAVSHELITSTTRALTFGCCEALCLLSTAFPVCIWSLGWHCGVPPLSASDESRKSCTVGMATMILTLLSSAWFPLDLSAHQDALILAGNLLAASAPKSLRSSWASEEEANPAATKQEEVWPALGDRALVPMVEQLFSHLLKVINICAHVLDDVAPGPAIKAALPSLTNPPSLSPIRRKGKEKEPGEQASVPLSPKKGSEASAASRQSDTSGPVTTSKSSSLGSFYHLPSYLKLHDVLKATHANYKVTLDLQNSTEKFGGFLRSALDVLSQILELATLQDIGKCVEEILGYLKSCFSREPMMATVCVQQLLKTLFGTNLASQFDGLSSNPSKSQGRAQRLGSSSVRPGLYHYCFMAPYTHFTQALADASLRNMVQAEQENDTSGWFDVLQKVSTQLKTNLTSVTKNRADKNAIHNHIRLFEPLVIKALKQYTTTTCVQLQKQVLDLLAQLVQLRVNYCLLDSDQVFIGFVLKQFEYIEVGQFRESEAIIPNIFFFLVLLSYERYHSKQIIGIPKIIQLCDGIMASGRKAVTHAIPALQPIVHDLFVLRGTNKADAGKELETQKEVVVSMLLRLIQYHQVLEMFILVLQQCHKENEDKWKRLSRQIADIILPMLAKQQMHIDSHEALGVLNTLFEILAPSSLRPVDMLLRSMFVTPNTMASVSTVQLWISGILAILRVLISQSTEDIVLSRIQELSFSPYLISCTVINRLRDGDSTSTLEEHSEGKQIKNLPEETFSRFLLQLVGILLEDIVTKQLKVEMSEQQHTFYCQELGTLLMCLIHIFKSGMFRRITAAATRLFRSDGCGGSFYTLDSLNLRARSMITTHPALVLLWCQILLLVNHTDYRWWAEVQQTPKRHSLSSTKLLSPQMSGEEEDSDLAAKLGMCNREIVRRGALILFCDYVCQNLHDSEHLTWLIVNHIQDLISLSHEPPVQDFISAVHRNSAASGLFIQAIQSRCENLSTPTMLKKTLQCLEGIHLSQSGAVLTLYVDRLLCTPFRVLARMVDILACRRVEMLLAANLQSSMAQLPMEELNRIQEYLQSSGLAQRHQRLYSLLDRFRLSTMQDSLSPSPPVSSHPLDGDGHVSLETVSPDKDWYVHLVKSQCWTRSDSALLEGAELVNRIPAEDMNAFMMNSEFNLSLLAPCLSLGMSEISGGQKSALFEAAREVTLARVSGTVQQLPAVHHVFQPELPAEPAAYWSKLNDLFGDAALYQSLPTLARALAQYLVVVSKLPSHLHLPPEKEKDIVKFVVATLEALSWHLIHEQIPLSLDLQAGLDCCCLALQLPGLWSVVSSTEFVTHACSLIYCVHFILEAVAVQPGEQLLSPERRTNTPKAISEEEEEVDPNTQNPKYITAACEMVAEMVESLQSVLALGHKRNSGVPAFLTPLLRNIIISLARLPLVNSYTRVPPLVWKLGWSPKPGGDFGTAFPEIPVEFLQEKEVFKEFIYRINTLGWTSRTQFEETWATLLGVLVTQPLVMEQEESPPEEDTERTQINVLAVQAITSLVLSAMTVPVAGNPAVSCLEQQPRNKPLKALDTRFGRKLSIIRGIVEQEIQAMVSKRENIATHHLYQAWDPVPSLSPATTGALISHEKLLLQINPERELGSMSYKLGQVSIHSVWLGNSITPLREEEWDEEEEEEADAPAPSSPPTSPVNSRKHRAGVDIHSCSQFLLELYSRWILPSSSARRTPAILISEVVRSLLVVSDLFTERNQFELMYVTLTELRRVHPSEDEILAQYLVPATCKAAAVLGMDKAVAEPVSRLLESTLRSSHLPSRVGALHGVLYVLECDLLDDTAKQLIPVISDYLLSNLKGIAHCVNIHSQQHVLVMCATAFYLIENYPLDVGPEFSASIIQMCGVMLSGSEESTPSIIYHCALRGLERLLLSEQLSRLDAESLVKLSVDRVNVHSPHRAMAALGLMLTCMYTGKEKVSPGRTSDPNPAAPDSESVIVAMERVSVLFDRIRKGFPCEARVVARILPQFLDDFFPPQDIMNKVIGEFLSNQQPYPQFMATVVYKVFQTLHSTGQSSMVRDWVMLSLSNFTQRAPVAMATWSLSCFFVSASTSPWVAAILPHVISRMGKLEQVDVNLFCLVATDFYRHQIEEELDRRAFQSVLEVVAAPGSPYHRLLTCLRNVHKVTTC
Series [2] in a line: Stability in mouse liver microsomes assessed as parent compound remaining at 1 uM incubated for 60 mins in presence of NADPH. Format: ADME. The following applies: read-out: Stability.
Series [3] in a line: Stability in mouse liver microsomes assessed as parent compound remaining at 1 uM incubated for 60 mins in absence of NADPH. The following applies: read-out: Stability. Format: ADME. (Liver microsomes are vesicles of endoplasmic reticulum, rich in cytochrome P450 enzymes.)
The test system of series [4] is STHdhQ111. The series is described as follows: Cytoprotective activity in mouse STHdhQ111 cells assessed as protection against H2O2-induced cell death at 10 nM to 1 uM by MTT assay. Format: functional, cell-based.
For series [5], the system named is STHdhQ111. The series is described as follows: Cytoprotective activity in mouse STHdhQ111 cells assessed as protection against beta-amyloid-induced cell death at 10 nM to 1 uM by MTT assay. The class given is functional, cell-based. A general note: Formazan colour is commonly taken as a measure of viable cells.
Series [6] relates to STHdhQ111. The series is described as follows: Cytoprotective activity in mouse STHdhQ111 cells against serum free medium-induced apoptotic cell death assessed as inhibition of caspase-9 activation incubated for 16 hrs. Format: functional, cell-based.
Series [7] has as its system STHdhQ111. The series is described as follows: Cytoprotective activity in mouse STHdhQ111 cells against serum free medium-induced apoptotic cell death assessed as inhibition of caspase-3 activation incubated for 16 hrs. The class given is functional, cell-based.
The nature of series [8]: Stability in mouse liver microsomes assessed as parent compound remaining at 5 uM incubated for 60 mins in absence of NADPH. Format: ADME. The following applies: read-out: Stability.
The nature of series [9]: Stability in mouse liver microsomes assessed as parent compound remaining at 5 uM incubated for 60 mins in presence of NADPH. Format: ADME. Conditions: read-out: Stability.

Activity calls are given as the source filed them. No cut-off for these calls is given here.

Usually Kd stands for the free concentration of one partner at which half of the binding sites on the other are occupied at equilibrium, for simple one-to-one binding. A higher Kd goes with lower affinity. In general, AC50 refers to the concentration giving half of the maximal activity seen.

Molecule `Cn1nnnc1Sc1ncnc2scc(-c3ccc(N)cc3)c12` gave a Kd in [1] of 5.62 µM. This lies in the single-digit micromolar range.
Regarding `Cn1nnnc1Sc1ncnc2scc(-c3ccccc3[N+](=O)[O-])c12`, in series [1], binding was put at a Kd of 11.2 µM. Moreover, the AC50 on Huntingtin amounted to 15.8 µM.
Take `Cn1nnnc1Sc1ncnc2scc(-c3ccc(S(C)(=O)=O)cc3)c12`: binding in series [1] was put at a Kd of 7.94 µM. The AC50 on Huntingtin was 15.8 µM.
In series [1], `COc1cccc(-c2csc3ncnc(Sc4nnnn4C)c23)c1` returned an equilibrium dissociation constant (Kd) of 3.98 µM. The AC50 on Huntingtin came out at 28.2 µM.
Turning to `Cc1ccc(-c2csc3ncnc(Sc4nnnn4C)c23)cc1`, binding in series [1] was put at a Kd of 14.1 µM. In addition, the concentration at half-maximal activity (AC50) on Huntingtin is 39.8 µM.
Take `Cn1nnnc1Sc1ncnc2scc(-c3cccc(Cl)c3)c12`: the affinity in series [1], expressed as Kd, was 11.2 µM. The AC50 on Huntingtin was determined as 22.4 µM.
Taken in the same sequence, the figures for `Cn1nnnc1Sc1ncnc2scc(-c3ccc4c(c3)OCO4)c12` were 12.6 µM and 20 µM.
In [1], `Cn1nnnc1Sc1ncnc2scc(-c3cccc(C#N)c3)c12` displayed a Kd of 2.51 µM. Besides, the AC50 on Huntingtin was found to be 35.5 µM.
As for `Cn1nnnc1Sc1ncnc2scc(-c3ccc(Br)cc3)c12`, the affinity in series [1], expressed as Kd, was 39.8 µM. Besides, at Huntingtin, the AC50 worked out at 35.5 µM.
The corresponding values for `Cn1nnnc1Sc1ncnc2scc(-c3cccc4ccccc34)c12` are over 100 µM and 35.5 µM.
Consider `Cn1nnnc1Sc1ncnc2scc(-c3ccccc3C#N)c12`, for which, in series [1], the Kd amounted to 6.3 µM.
The molecule `Cn1nnnc1Sc1ncnc2scc(-c3ccc(C#N)cc3)c12` gave a Kd in [1] of 12.6 µM. On Huntingtin, the AC50 turned out to be 35.5 µM.
The molecule `Cn1nnnc1Sc1ncnc2scc(-c3ccc(Cl)cc3)c12` displayed a dissociation constant (Kd) in series [1] of 28.2 µM. For the same molecule, the AC50 at Huntingtin amounted to 39.8 µM.
Consider `Cn1nnnc1Sc1ncnc2scc(-c3cccc(Br)c3)c12`, for which, in [1], the Kd amounted to 2.82 µM. Besides, the AC50 at Huntingtin was found to be 35.5 µM.
Turning to `CC(=O)c1ccc(-c2csc3ncnc(Sc4nnnn4C)c23)cc1`, at Huntingtin, the AC50 turned out to be 39.8 µM. The figures for the remaining at 1 h, 1 µM in series [2] and in series [3] were 2% and 91%, respectively.
Turning to `CC(=O)c1cccc(-c2csc3ncnc(Sc4nnnn4C)c23)c1`, the AC50 at Huntingtin is 28.2 µM. Also, the result in the series with STHdhQ111 [4] and with STHdhQ111 [5] was Active.
On to `COc1ccccc1-c1csc2ncnc(Sc3nnnn3C)c12`, for which binding in series [1] was characterised by a dissociation constant (Kd) of 79.4 µM. The AC50 at Huntingtin turned out to be 31.6 µM.
Molecule `Cn1nnnc1Sc1ncnc2scc(-c3ccc4ccccc4c3)c12` showed a Kd in series [1] of 63.1 µM. The AC50 at Huntingtin is 15.8 µM.
`Cc1ccccc1-c1csc2ncnc(Sc3nnnn3C)c12`: the affinity in series [1], expressed as Kd, was 44.7 µM.
For `Cn1nnnc1Sc1ncnc2scc(-c3ccccc3Cl)c12`, in series [1], binding was characterised by a dissociation constant (Kd) of 14.1 µM.
Turning to `Cn1nnnc1Sc1ncnc2scc(-c3ccccc3C(F)(F)F)c12`, in series [1], the affinity, expressed as Kd, was 63.1 µM. In addition, at Huntingtin, the AC50 was determined as 28.2 µM.
In turn, `Cn1nnnc1Sc1ncnc2scc(-c3ccccc3F)c12` had a Kd in series [1] of 6.31 µM. In addition, the half-maximal activity concentration (AC50) on Huntingtin was found to be 35.5 µM.
For the molecule `Cn1nnnc1Sc1ncnc2scc(-c3cc4ccccc4o3)c12`, in series [1], the affinity, expressed as Kd, was 2.82 µM. At Huntingtin, the concentration at half-maximal activity (AC50) came out at 7.94 µM.
For the molecule `Cn1nnnc1Sc1ncnc2scc(-c3ccc(F)cc3)c12`, in series [1], the Kd was 12.6 µM. Moreover, the AC50 on Huntingtin was 20 µM. Moreover, the result with STHdhQ111 [6] and in the series on STHdhQ111 [7] was Active.
Consider `CS(=O)(=O)c1cccc(-c2csc3ncnc(NCCN)c23)c1`, for which, in series [1], the Kd was over 100 µM.
On to `Cn1nnnc1Sc1ncnc2scc(-c3ccsc3)c12`, for which, in series [1], binding was put at a Kd of 7.94 µM. Moreover, the AC50 at Huntingtin was determined as 35.5 µM.
In series [1], `Cn1nnnc1Sc1ncnc2scc(-c3cccc(S(C)(=O)=O)c3)c12` had a Kd of 0.63 µM. In addition, the AC50 on Huntingtin was found to be 39.8 µM. Moreover, the figures for the remaining at 1 h, 5 µM in [8] and in series [9] were 89% and 70%, respectively.
Turning to `Cn1nnnc1Sc1ncnc2scc(-c3ccc(-c4ccccc4)cc3)c12`, the Kd in series [1] was over 100 µM. Besides, the AC50 at Huntingtin came to 28.2 µM.
In [1], `Cn1nnnc1Sc1ncnc2scc(-c3ccc(C(=O)OC(C)(C)C)cc3)c12` showed a Kd of over 100 µM. Also, the AC50 on Huntingtin is 35.5 µM.
The corresponding values for `Cn1nnnc1Sc1ncnc2scc(-c3cccc(N)c3)c12` are 3.98 µM and 31.6 µM.
Molecule `Cc1cccc(-c2csc3ncnc(Sc4nnnn4C)c23)c1` showed a Kd in series [1] of 11.2 µM. Also, at Huntingtin, the AC50 is 35.5 µM.
`Cn1nnnc1Sc1ncnc2scc(-c3ccc([N+](=O)[O-])cc3)c12` displayed a Kd in [1] of 6.31 µM. For the same molecule, the AC50 at Huntingtin stood at 35.5 µM.
On to `Cn1nnnc1Sc1ncnc2scc(-c3ccc(C(F)(F)F)cc3)c12`, for which, in [1], the Kd was over 100 µM. Also, the AC50 on Huntingtin amounted to 35.5 µM.
With `Cn1nnnc1Sc1ncnc2scc(Br)c12`, in [1], the Kd stood at 1.12 µM. The AC50 at Huntingtin is 5.01 µM.
Molecule `Cn1nnnc1Sc1ncnc2scc(-c3ccccc3)c12` yielded a Kd in series [1] of 3.55 µM. Also, the AC50 on Huntingtin is 39.8 µM.
Taken in the same sequence, the figures for `Cn1nnnc1Sc1ncnc2scc(-c3cccc(C(F)(F)F)c3)c12` were 6.3 µM and 35.5 µM.
Consider `Cn1nnnc1Sc1ncnc2scc(-c3ccc4c(=O)ccoc4c3)c12`, for which, in [1], the affinity, expressed as Kd, was 1.99 µM. The AC50 on Huntingtin is 35.5 µM.
Taken in the same sequence, the figures for `Cn1nnnc1Sc1ncnc2scc(-c3cccc([N+](=O)[O-])c3)c12` were 1.58 µM and 35.5 µM.
Regarding `Cn1nnnc1Sc1ncnc2scc(-c3cccs3)c12`, binding in series [1] was characterised by a dissociation constant (Kd) of 2.82 µM. In addition, the AC50 on Huntingtin came out at 35.5 µM. The remaining at 1 h, 1 µM in series [2] was 0%; in [3] it was 88%.
`Cn1nnnc1Sc1ncnc2scc(-c3cccc4c3sc3ccccc34)c12` came in with a Kd in series [1] of over 100 µM. Also, the AC50 at Huntingtin was 35.5 µM.
Regarding `Cn1nnnc1Sc1ncnc2scc(I)c12`, the Kd in series [1] came to 0.89 µM. Further, the AC50 at Huntingtin came to 35.5 µM.
Taken in the same sequence, the figures for `Cn1nnnc1Sc1ncnc2scc(-c3cccc(F)c3)c12` were 6.31 µM and 14.1 µM.
Consider `Cn1nnnc1Sc1ncnc2scc(-c3ccc[nH]3)c12`, for which the Kd in series [1] stood at 5.62 µM. Further, the AC50 on Huntingtin was 31.6 µM.
`CC(=O)c1ccccc1-c1csc2ncnc(Sc3nnnn3C)c12` returned a Kd in series [1] of 44.7 µM.
With `COc1ccc(-c2csc3ncnc(Sc4nnnn4C)c23)cc1`, binding in series [1] was put at a Kd of 11.2 µM. The AC50 on Huntingtin came out at 39.8 µM.

Source of the values: ChEMBL document CHEMBL3727374, “Compounds, pharmaceutical compositions, and methods of treating or preventing neurodegenerative diseases or disorders” (2012).
